# Measurements from patent publication US20240199618A1, “NOVEL N-ACYL-[3-SUBSTITUTED]-[8-SUBSTITUTED]-5,6-DIHYDRO-[1,2,4]TRIAZOLO[4,3-a]PYRAZINES AS SELECTIVE NK-3 RECEPTOR ANTAGONISTS, PHARMACEUTICAL COMPOSITION, METHODS FOR USE IN NK-3 RECEPTOR-MEDIATED DISORDERS” (Ogeda SA, priority 2013, published 2024).
# Read-outs that look alike come from different tables or passages of the source.
# Tests used:
# [1] = target: T1, human NK-3 receptor (Homo sapiens (Human), UniProt P29371); assay: Aequorin functional assay with human NK-3 receptor (antagonist testing vs NKA); assay type: cell-based; settings: CHO cells, NKA at EC80 (3 nM); read-out: Functional assay: Aequorin assay with human NK-3 receptor hNK-3-AEQ (antagonist IC50)
# T1 sequence (P29371 whole entry): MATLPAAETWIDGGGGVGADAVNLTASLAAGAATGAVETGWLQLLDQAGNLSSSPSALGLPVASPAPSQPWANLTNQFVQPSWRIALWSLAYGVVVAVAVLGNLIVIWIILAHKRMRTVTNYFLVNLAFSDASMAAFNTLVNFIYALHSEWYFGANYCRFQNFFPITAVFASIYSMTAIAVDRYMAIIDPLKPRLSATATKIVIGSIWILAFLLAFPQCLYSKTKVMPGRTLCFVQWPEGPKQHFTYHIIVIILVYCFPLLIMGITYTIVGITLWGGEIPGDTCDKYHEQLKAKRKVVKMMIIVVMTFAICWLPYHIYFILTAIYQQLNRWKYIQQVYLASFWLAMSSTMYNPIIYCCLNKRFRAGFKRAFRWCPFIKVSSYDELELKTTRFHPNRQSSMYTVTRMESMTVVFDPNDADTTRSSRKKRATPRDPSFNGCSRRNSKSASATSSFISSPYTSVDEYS
# Outline: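 CHO cells co-expressing human NK-3 receptor and apoaequorin were pre-incubated 3 min with compound, then challenged with NKA at EC80 (3 nM). Coelenterazine-dependent luminescence was integrated over 90 s, and antagonism was derived from concentration-dependent inhibition of the calcium response.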
# [2] = target: T1, human NK-3 receptor; assay: 3H-SB222200 binding competition assay with human NK-3 receptor
# Outline: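 Membranes from CHO cells stably expressing the receptor were incubated with 5 nM 3H-SB222200 and varying compound concentrations in HEPES 25 mM/NaCl 0.1 M/CaCl2 1 mM/MgCl2 5 mM/BSA 0.5%/saponin 10 μg/ml, pH 7.4. Bound radioligand was quantified as membrane-associated radioactivity after filtration.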
# [3] = target: human NK-1 receptor (Homo sapiens (Human), UniProt P25103); assay: Selectivity assay: [3H] substance P binding, human NK-1 receptor; settings: 2 nM [3H] substance P, CHO membranes; read-out: hNK-1 (Ki)
# Sequence of human NK-1 receptor (P25103 whole entry): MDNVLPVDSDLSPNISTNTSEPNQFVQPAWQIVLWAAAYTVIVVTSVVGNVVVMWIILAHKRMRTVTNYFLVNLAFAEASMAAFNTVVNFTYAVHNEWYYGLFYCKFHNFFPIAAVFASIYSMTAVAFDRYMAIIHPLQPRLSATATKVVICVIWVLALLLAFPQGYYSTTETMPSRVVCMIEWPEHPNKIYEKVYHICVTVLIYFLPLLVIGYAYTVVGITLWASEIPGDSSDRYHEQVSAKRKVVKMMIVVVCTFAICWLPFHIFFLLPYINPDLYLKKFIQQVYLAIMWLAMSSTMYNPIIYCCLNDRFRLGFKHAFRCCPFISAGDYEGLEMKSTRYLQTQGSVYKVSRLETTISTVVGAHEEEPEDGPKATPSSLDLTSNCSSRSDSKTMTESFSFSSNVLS
# Outline: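 Competition binding on membranes from CHO cells expressing human NK-1 receptor, using 2 nM [3H] substance P in 50 mM Tris/5 mM MnCl2/150 mM NaCl/0.1% BSA, pH 7.4, with increasing compound concentrations. Incubated 60 min at 25 °C; bound radioactivity measured after filtration.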
# [4] = target: human NK-2 receptor (Homo sapiens (Human), UniProt P21452); assay: Selectivity assay: [125I]-Neurokinin A binding, human NK-2 receptor; settings: 0.1 nM [125I]-Neurokinin A, CHO membranes; read-out: hNK-2 (Ki)
# Sequence of human NK-2 receptor (P21452 whole entry): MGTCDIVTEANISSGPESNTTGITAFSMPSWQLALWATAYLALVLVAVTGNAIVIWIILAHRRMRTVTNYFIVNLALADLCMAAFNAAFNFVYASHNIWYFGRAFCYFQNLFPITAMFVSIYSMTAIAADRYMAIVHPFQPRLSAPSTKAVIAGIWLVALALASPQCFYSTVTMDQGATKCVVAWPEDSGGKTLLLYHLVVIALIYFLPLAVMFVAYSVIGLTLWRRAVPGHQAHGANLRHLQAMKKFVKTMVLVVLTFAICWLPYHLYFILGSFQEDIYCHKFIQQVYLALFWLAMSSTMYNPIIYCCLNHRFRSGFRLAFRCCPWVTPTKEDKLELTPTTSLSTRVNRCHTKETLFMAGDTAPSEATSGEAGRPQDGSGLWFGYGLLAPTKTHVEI
# Procedure: The affinity of compounds of the invention for the NK-2 receptor was evaluated in CHO recombinant cells which express the human NK-2 receptor. Membrane suspensions were prepared from these cells. […] Binding assays were performed in a 25 mM HEPES/1 mM CaCl2)/5 mM MgCl2/0.5% BSA/10 μg/ml saponin, at pH 7.4. […] The radioactivity retained on the filters was measured by using the TopCount-NXT reader (Packard).
# [5] = test system: plasma protein; assay: Determination of plasma protein binding (equilibrium dialysis, RED); assay type: in vitro ADME; settings: 4 hours at 37° C.
# [6] = test system: circulating levels of luteinizing hormone (LH); assay: Castrated male rat model, circulating luteinizing hormone (LH); assay type: in vivo; settings: single oral dose less than or equal to 30 mg/kg, p<0.05
# Procedure: Castrated Male Rat Model to Assess the Effect of Compound of Invention on Circulating Levels of Luteinizing Hormone (LH)
# The effect of compounds of the invention to inhibit luteinizing hormone (LH) secretion is determined by the following biological studies.
# In humans and rodents, castration is well-precedented to permit heightened, persistent GnRH signaling and consequent elevation of circulating LH. Thus, a castrated rat model is used to provide a broad index for measurement of LH inhibition as a marker of test compound inhibition of the GnRH signaling pathway.
# Castrated adult male Sprague-Dawley (SD) rats (150-175 g,) were purchased from Janvier (St Berthevin, France). All animals were housed 2 per cage in a temperature-controlled room (22±2° C.) and 50±5% relative humidity with a 12 hour/12 hour light/dark cycles (lights off at […]). The animals were allowed 3 weeks of postoperative recovery prior to study. Animals were handled on a daily basis. Standard diet and tap water were provided ad libitum. Animal cage litters were changed once a week. On the study day, animals were acclimated to the procedure room for a period of one hour prior to the initiation of the experiment.
# Compounds of the invention were formulated in 0.5% methyl cellulose.
# After basal sampling (TO) a single dose of compounds of the invention or vehicle was administrated orally to rats. Blood samples were then collected at several time points post dosing (45, 90, 150, 300 and 420 minutes). Blood samples were obtained via tail vein bleed, drawn into EDTA-containing tubes and centrifuged immediately. Plasma samples were collected and stored in a −80° C. freezer until assayed. Serum LH levels were determined using radioimmunoassay kit from RIAZEN—Rat L H, Zentech (Liege, Belgium). Baseline was defined as the initial basal blood sample.
# [7] = Table 2, 5 nM 3H-SB222200, CHO membranes, read-out: Competitive binding assay with human NK-3 receptor hNK-3 (Ki)
# [8] = Table 3 (selectivity table), read-out: hNK-3 (Ki)
IC50 [1] [nM],"Ki [2, 7] [nM]","Ki [2, 8] [nM]",Ki [3] [nM],Ki [4] [nM],"Exposure (% rPPB), bound drug fraction to plasma protein [5] [%]",SMILES,circulating LH levels [6]
19,20,20,19900,23000,40,"Cc1nsc(-c2nnc3n2CCN(C(=O)c2ccc(Cl)c(F)c2)[C@@H]3C)n1 [Compound 4, (R)-(4-chloro-3-fluorophenyl)(8-methyl-3-(3-methyl-1,2,4-thiadiazol-5-yl)-5,6-dihydro-[1,2,4]triazolo[4,3-a]pyrazin-7(8H)-yl)methanone]",significantly suppressed
33,26,26,> 30000,> 30000,29,"Cc1nsc(-c2nnc3n2CCN(C(=O)c2ccc(F)c(F)c2F)[C@@H]3C)n1 [Compound 8, (R)-(8-methyl-3-(3-methyl-1,2,4-thiadiazol-5-yl)-5,6-dihydro-[1,2,4]triazolo[4,3-a]pyrazin-7(8H)-yl)(2,3,4-trifluorophenyl)methanone]",significantly suppressed
21,30,30,> 30000,> 30000,22,"Cc1nsc(-c2nnc3n2CCN(C(=O)c2ccc(F)c(F)c2)[C@@H]3C)n1 [Compound 9, (R)-(3,4-difluorophenyl)(8-methyl-3-(3-methyl-1,2,4-thiadiazol-5-yl)-5,6-dihydro-[1,2,4]triazolo[4,3-a]pyrazin-7(8H)-yl)methanone]",significantly suppressed
44,40,40,> 30000,> 30000,37,"CCc1noc(-c2nnc3n2CCN(C(=O)c2ccc(F)cc2)[C@@H]3C)n1 [Compound 13, (R)-(3-(3-ethyl-1,2,4-oxadiazol-5-yl)-8-methyl-5,6-dihydro-[1,2,4]triazolo[4,3-a]pyrazin-7(8H)-yl)(4-fluorophenyl)methanone]",significantly suppressed
